In US20260262643A1, “HERBICIDAL BENZOXAZINES” (FMC CORPORATION, priority 2022, published 2026):

What was measured:
blackgrass [1] = assay: Test C preemergence; type: in vivo, Alopecurus myosuroides; conditions: preemergence, 0 to 100 scale (0 no effect, 100 complete control)
Summary of the method: (§1)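 Soil-applied (pre) and foliar (post, 1–2 leaf, 2–10 cm) sprays; surfactant-containing non-phytotoxic solvent vehicle; loam/sand substrate. Readout: visual % control at 10 d, greenhouse, versus untreated.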

corn [2] = assay: Test C preemergence; type: in vivo, Zea mays; conditions: preemergence, 0 to 100 scale (0 no effect, 100 complete control)
Summary of the method: as §1

foxtail, giant [3] = assay: Test C preemergence; type: in vivo, Setaria faberi; conditions: preemergence, 0 to 100 scale (0 no effect, 100 complete control)
Summary of the method: as §1

goosegrass [4] = assay: Test C preemergence; type: in vivo, Eleusine indica; conditions: preemergence, 0 to 100 scale (0 no effect, 100 complete control)
Text: (§2) Seeds of plant species selected from barnyardgrass (Echinochloa crusgalli), blackgrass (Alopecurus myosuroides), corn (Zea mays), foxtail, giant (giant foxtail, Setaria faberi), green foxtail (Setaria viridis), goosegrass (Eleusine indica), kochia (Bassia scoparia), oat, wild (wild oat, Avena fatua), pigweed, palmer (palmer amaranth, palmer pigweed, Amaranthus palmeri), Pigweed, Redroot (redroot pigweed, Amaranthus retroflexus), ragweed (common ragweed, Ambrosia artemisiifolia), ryegrass, Italian ([…] ryegrass, Lolium multiflorum), soybean (Glycine max), and wheat (Triticum aestivum) were planted into a blend of loam soil and sand and treated preemergence with a directed soil spray using test chemicals formulated in a non-phytotoxic solvent mixture which included a surfactant. At the same time, plants selected from these crops and weed species and also galium (catchweed bedstraw, Galium aparine) and horseweed (Erigeron canadensis) were planted in pots containing the same blend of loam soil and sand and treated with postemergence applications of test chemicals formulated in the same manner. Plants ranged in height from 2 to 10 cm and were in the one- to two-leaf stage for the postemergence treatment. Treated plants and untreated controls were maintained in a greenhouse for 10 days, after which time all treated plants were compared to untreated controls and visually evaluated for injury. Plant response ratings, summarized in Table C, are based on a 0 to 100 scale where 0 is no effect and 100 is complete control. A dash (-) response means no test result.

kochia [5] = assay: Test C preemergence; type: in vivo, Bassia scoparia; conditions: preemergence, 0 to 100 scale (0 no effect, 100 complete control)
Summary of the method: as §1

oat, wild [6] = assay: Test C preemergence; type: in vivo, Avena fatua; conditions: preemergence, 0 to 100 scale (0 no effect, 100 complete control)
Summary of the method: as §1

pigweed, palmer [7] = assay: Test C preemergence; type: in vivo, Amaranthus palmeri; conditions: preemergence, 0 to 100 scale (0 no effect, 100 complete control)
Summary of the method: as §1

ragweed [8] = assay: Test C preemergence; type: in vivo, Ambrosia artemisiifolia; conditions: preemergence, 0 to 100 scale (0 no effect, 100 complete control)
Summary of the method: as §1

ryegrass, Italian [9] = assay: Test C preemergence; type: in vivo, Lolium multiflorum; conditions: preemergence, 0 to 100 scale (0 no effect, 100 complete control)
Summary of the method: as §1

soybean [10] = assay: Test C preemergence; type: in vivo, Glycine max; conditions: preemergence, 0 to 100 scale (0 no effect, 100 complete control)
Summary of the method: as §1

wheat [11] = assay: Test C preemergence; type: in vivo, Triticum aestivum; conditions: preemergence, 0 to 100 scale (0 no effect, 100 complete control)
Summary of the method: as §1

blackgrass [12] = assay: Test C postemergence; type: in vivo, Alopecurus myosuroides; conditions: postemergence, 10 days
Summary of the method: as §1

corn [13] = assay: Test C postemergence; type: in vivo, Zea mays; conditions: postemergence, 10 days
Summary of the method: as §1

foxtail, giant [14] = assay: Test C postemergence; type: in vivo, Setaria faberi; conditions: postemergence, 10 days
Summary of the method: as §1

goosegrass [15] = assay: Test C postemergence; type: in vivo, Eleusine indica; conditions: postemergence, 10 days
Text: as §2

kochia [16] = assay: Test C postemergence; type: in vivo, Bassia scoparia; conditions: postemergence, 10 days
Summary of the method: as §1

oat, wild [17] = assay: Test C postemergence; type: in vivo, Avena fatua; conditions: postemergence, 10 days
Summary of the method: as §1

pigweed, palmer [18] = assay: Test C postemergence; type: in vivo, Amaranthus palmeri; conditions: postemergence, 10 days
Summary of the method: as §1

ragweed [19] = assay: Test C postemergence; type: in vivo, Ambrosia artemisiifolia; conditions: postemergence, 10 days
Summary of the method: as §1

ryegrass, Italian [20] = assay: Test C postemergence; type: in vivo, Lolium multiflorum; conditions: postemergence, 10 days
Summary of the method: as §1

soybean [21] = assay: Test C postemergence; type: in vivo, Glycine max; conditions: postemergence, 10 days
Summary of the method: as §1

wheat [22] = assay: Test C postemergence; type: in vivo, Triticum aestivum; conditions: postemergence, 10 days
Summary of the method: as §1

galium = assay: Test C postemergence; type: in vivo, Galium aparine; conditions: postemergence, 10 days
Summary of the method: as §1

barnyardgrass = assay: Test D flooded paddy test; type: in vivo, Echinochloa crus-galli; conditions: 250 g ai/ha, applied to paddy water, visual rating after 13 to 14 days, scale 0 to 100 (0 no effect, 100 complete control)
Summary of the method: (§3)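 Compounds go straight into paddy water over 2-leaf plants in pots flooded to 3 cm. Greenhouse holding lasts 13 to 14 days. Injury is scored by eye against controls from 0 (none) to 100 (complete control).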

ducksalad = assay: Test D flooded paddy test; type: in vivo, Heteranthera limosa; conditions: 250 g ai/ha, applied to paddy water, visual rating after 13 to 14 days, scale 0 to 100 (0 no effect, 100 complete control)
Summary of the method: as §3

rice = assay: Test D flooded paddy test; type: in vivo, Oryza sativa; conditions: 250 g ai/ha, applied to paddy water, visual rating after 13 to 14 days, scale 0 to 100 (0 no effect, 100 complete control)
Summary of the method: as §3

sedge, umbrella = assay: Test D flooded paddy test; type: in vivo, Cyperus difformis; conditions: 250 g ai/ha, applied to paddy water, visual rating after 13 to 14 days, scale 0 to 100 (0 no effect, 100 complete control)
Summary of the method: as §3

horseweed = assay: Test C postemergence; type: in vivo, Erigeron canadensis; conditions: postemergence, 10 days
Summary of the method: as §1

[23] = 125 g ai/ha, 0 to 100 scale, 0 no effect, 100 complete control
[24] = 500 g ai/ha, 0 to 100 scale (0 no effect, 100 complete control)

Structure (SMILES): Cc1cccc2c1O[C@@H](C)CN2C(=O)c1cccc(-n2cnc(-c3ccccc3)n2)c1 [Compound 283]
- Blackgrass plant response rating (blackgrass [1]; 500 g ai/ha): 40
- Blackgrass plant response rating (blackgrass [1]; Test C, 125 g ai/ha): 40
- Corn plant response rating (corn [2]; 500 g ai/ha): 0
- Corn plant response rating (corn [2]; Test C, 125 g ai/ha): 0
- Foxtail, Giant plant response rating (foxtail, giant [3]; 500 g ai/ha): 90
- Foxtail, Giant plant response rating (foxtail, giant [3]; Test C, 125 g ai/ha): 60
- Goosegrass plant response rating (goosegrass [4]; 500 g ai/ha): 100
- Goosegrass plant response rating (goosegrass [4]; Test C, 125 g ai/ha): 80
- Kochia plant response rating (kochia [5]; 500 g ai/ha): 50
- Kochia plant response rating (kochia [5]; Test C, 125 g ai/ha): 20
- Oat, Wild plant response rating (oat, wild [6]; 500 g ai/ha): 10
- Oat, Wild plant response rating (oat, wild [6]; Test C, 125 g ai/ha): 20
- Pigweed, Palmer plant response rating (pigweed, palmer [7]; 500 g ai/ha): 100
- Pigweed, Palmer plant response rating (pigweed, palmer [7]; Test C, 125 g ai/ha): 30
- Ragweed plant response rating (ragweed [8]; 500 g ai/ha): 0
- Ragweed plant response rating (ragweed [8]; Test C, 125 g ai/ha): 0
- Ryegrass, Italian plant response rating (ryegrass, Italian [9]; 500 g ai/ha): 100
- Ryegrass, Italian plant response rating (ryegrass, Italian [9]; Test C, 125 g ai/ha): 70
- Soybean plant response rating (soybean [10]; 500 g ai/ha): 30
- Soybean plant response rating (soybean [10]; Test C, 125 g ai/ha): 0
- Wheat plant response rating (wheat [11]; 500 g ai/ha): 10
- Wheat plant response rating (wheat [11]; Test C, 125 g ai/ha): 0
- Plant response rating, Blackgrass (blackgrass [12]; [23]): 10
- Plant response rating, Blackgrass (blackgrass [12]; [24]): 40
- Plant response rating, Corn (corn [13]; [23]): 20
- Plant response rating, Corn (corn [13]; [24]): 20
- Plant response rating, Foxtail, Giant (foxtail, giant [14]; [23]): 20
- Plant response rating, Foxtail, Giant (foxtail, giant [14]; [24]): 90
- Plant response rating, Goosegrass (goosegrass [15]; [23]): 10
- Plant response rating, Goosegrass (goosegrass [15]; [24]): 40
- Plant response rating, Kochia (kochia [16]; [23]): 70
- Plant response rating, Kochia (kochia [16]; [24]): 80
- Plant response rating, Oat, Wild (oat, wild [17]; [23]): 10
- Plant response rating, Oat, Wild (oat, wild [17]; [24]): 10
- Plant response rating, Pigweed, Palmer (pigweed, palmer [18]; [23]): 60
- Plant response rating, Pigweed, Palmer (pigweed, palmer [18]; [24]): 80
- Plant response rating, Ragweed (ragweed [19]; [23]): 10
- Plant response rating, Ragweed (ragweed [19]; [24]): 50
- Plant response rating, Ryegrass, Italian (ryegrass, Italian [20]; [23]): 20
- Plant response rating, Ryegrass, Italian (ryegrass, Italian [20]; [24]): 50
- Plant response rating, Soybean (soybean [21]; [23]): 90
- Plant response rating, Soybean (soybean [21]; [24]): 90
- Plant response rating, Wheat (wheat [22]; [23]): 10
- Plant response rating, Wheat (wheat [22]; [24]): 10
- Plant response rating, Galium (galium; [23]): 50
- Plant response rating, Galium (galium; [24]): 80
- Plant response rating, Barnyardgrass (Flood) (barnyardgrass): 0
- Plant response rating, Ducksalad (Flood) (ducksalad): 0
- Plant response rating, Rice (Flood) (rice): 0
- Plant response rating, Sedge, Umbrella (Flood) (sedge, umbrella): 0

Structure (SMILES): CC1Oc2ccccc2N(C(=O)c2cccc(-n3cncn3)c2)C1C (stereo not shown) [Compound 285]
- Blackgrass plant response rating (blackgrass [1]; 500 g ai/ha): 0
- Blackgrass plant response rating (blackgrass [1]; Test C, 125 g ai/ha): 0
- Corn plant response rating (corn [2]; 500 g ai/ha): 0
- Corn plant response rating (corn [2]; Test C, 125 g ai/ha): 0
- Foxtail, Giant plant response rating (foxtail, giant [3]; 500 g ai/ha): 0
- Foxtail, Giant plant response rating (foxtail, giant [3]; Test C, 125 g ai/ha): 0
- Goosegrass plant response rating (goosegrass [4]; 500 g ai/ha): 0
- Goosegrass plant response rating (goosegrass [4]; Test C, 125 g ai/ha): 0
- Oat, Wild plant response rating (oat, wild [6]; 500 g ai/ha): 0
- Oat, Wild plant response rating (oat, wild [6]; Test C, 125 g ai/ha): 0
- Pigweed, Palmer plant response rating (pigweed, palmer [7]; 500 g ai/ha): 0
- Pigweed, Palmer plant response rating (pigweed, palmer [7]; Test C, 125 g ai/ha): 0
- Ragweed plant response rating (ragweed [8]; 500 g ai/ha): 0
- Ragweed plant response rating (ragweed [8]; Test C, 125 g ai/ha): 0
- Ryegrass, Italian plant response rating (ryegrass, Italian [9]; 500 g ai/ha): 30
- Ryegrass, Italian plant response rating (ryegrass, Italian [9]; Test C, 125 g ai/ha): 20
- Soybean plant response rating (soybean [10]; 500 g ai/ha): 0
- Soybean plant response rating (soybean [10]; Test C, 125 g ai/ha): 0
- Wheat plant response rating (wheat [11]; 500 g ai/ha): 0
- Wheat plant response rating (wheat [11]; Test C, 125 g ai/ha): 0
- pest or weed control at 125 g/ha (blackgrass [12]; Alopecurus myosuroides, post-emergence, 240 h, 125 g ai/ha, 0 to 100 scale (0 no effect, 100 complete control), read-out: Plant response rating, Blackgrass): 0%
- pest or weed control at 500 g/ha (blackgrass [12]; Alopecurus myosuroides, post-emergence, 240 h, 500 g ai/ha, 0 to 100 scale (0 no effect, 100 complete control), read-out: Plant response rating, Blackgrass): 0%
- Corn plant response rating (crop injury, 0 = no effect, 100 = complete kill) at 125 g/ha (corn [13]; Zea mays, post-emergence, 240 h, 125 g ai/ha, 0 to 100 scale (0 no effect, 100 complete control)): 0%
- Corn plant response rating (crop injury, 0 = no effect, 100 = complete kill) at 500 g/ha (corn [13]; Zea mays, post-emergence, 240 h, 500 g ai/ha, 0 to 100 scale (0 no effect, 100 complete control)): 0%
- Plant response rating, Foxtail, Giant (foxtail, giant [14]; [23]): 0
- Plant response rating, Foxtail, Giant (foxtail, giant [14]; [24]): 0
- Plant response rating, Goosegrass (goosegrass [15]; [23]): 0
- Plant response rating, Goosegrass (goosegrass [15]; [24]): 0
- Plant response rating, Kochia (kochia [16]; [23]): 0
- Plant response rating, Kochia (kochia [16]; [24]): 0
- Plant response rating, Oat, Wild (oat, wild [17]; [23]): 0
- Plant response rating, Oat, Wild (oat, wild [17]; [24]): 0
- Plant response rating, Pigweed, Palmer (pigweed, palmer [18]; [23]): 0
- Plant response rating, Pigweed, Palmer (pigweed, palmer [18]; [24]): 0
- Plant response rating, Ragweed (ragweed [19]; [23]): 0
- Plant response rating, Ragweed (ragweed [19]; [24]): 0
- Plant response rating, Ryegrass, Italian (ryegrass, Italian [20]; [23]): 0
- Plant response rating, Ryegrass, Italian (ryegrass, Italian [20]; [24]): 0
- Plant response rating, Soybean (soybean [21]; [23]): 0
- Plant response rating, Soybean (soybean [21]; [24]): 10
- Plant response rating, Wheat (wheat [22]; [23]): 0
- Plant response rating, Wheat (wheat [22]; [24]): 0
- Plant response rating, Galium (galium; [23]): 0
- Plant response rating, Galium (galium; [24]): 30
- Plant response rating, Horseweed (horseweed; [23]): 0
- Plant response rating, Horseweed (horseweed; [24]): 0
- Plant response rating, Barnyardgrass (Flood) (barnyardgrass): 0
- Plant response rating, Ducksalad (Flood) (ducksalad): 0
- Plant response rating, Rice (Flood) (rice): 0
- Plant response rating, Sedge, Umbrella (Flood) (sedge, umbrella): 0
